According to US20020002269A1, “ARTEMIN, A NEUROTROPHIC FACTOR” (priority 1998, published 2002):

Key:
[1] = system: superior cervical ganglion (SCG) neurons; experiment: Survival of cultured superior cervical ganglion neurons after NGF withdrawal; type: cell-based, rat; conditions: 50 ng/ml, FIG. 7E
Method: Each GDNF ligand family member consisted of the human mature amino acid sequence and was produced by standard recombinant DNA methods. Recombinant GDNF, neurturin and persephin were obtained from Genentech while recombinant artemin was produced as described in Example 3.
The cultures were performed using standard methods described elsewhere (Kotzbauer et al., Neuron 12:763-773, 1994; Kotzbauer et al., Nature 384:467-470, 1996; Milbrandt et al., Neuron 20:245-253, 1998). […] Cultures were maintained for 3 days, after which they were fixed in 4% paraformaldehyde and stained with toluidine blue, and surviving neurons were counted. For nodose ganglion and dorsal root ganglion neuron cultures, dissociated neurons were plated directly into NGF (for dorsal root ganglia), or BDNF (for nodose ganglia, 100 ng/ml) or one of the GDNF ligands in serum-containing medium (AM50 with anti-NGF antibodies), and cells surviving after 3 days in culture were counted as above. Trigeminal ganglia were dissected, dissociated, and plated directly into medium containing NGF or the indicated GDNF ligands, and the number of surviving cells was assessed after 3 days in vitro. […]

GFRα3-Fc = target: T1, GFRα3-Fc (Homo sapiens, UniProt O60609); experiment: Direct binding of soluble GFRα3-Fc receptor body to plate-coated ligand; conditions: ligand coated at 325 ng/ml, absence of RET, FIG. 9E
T1 construct: purchased R&D Systems
T1 sequence (O60609 with tags, fused parts or gaps limits assumed): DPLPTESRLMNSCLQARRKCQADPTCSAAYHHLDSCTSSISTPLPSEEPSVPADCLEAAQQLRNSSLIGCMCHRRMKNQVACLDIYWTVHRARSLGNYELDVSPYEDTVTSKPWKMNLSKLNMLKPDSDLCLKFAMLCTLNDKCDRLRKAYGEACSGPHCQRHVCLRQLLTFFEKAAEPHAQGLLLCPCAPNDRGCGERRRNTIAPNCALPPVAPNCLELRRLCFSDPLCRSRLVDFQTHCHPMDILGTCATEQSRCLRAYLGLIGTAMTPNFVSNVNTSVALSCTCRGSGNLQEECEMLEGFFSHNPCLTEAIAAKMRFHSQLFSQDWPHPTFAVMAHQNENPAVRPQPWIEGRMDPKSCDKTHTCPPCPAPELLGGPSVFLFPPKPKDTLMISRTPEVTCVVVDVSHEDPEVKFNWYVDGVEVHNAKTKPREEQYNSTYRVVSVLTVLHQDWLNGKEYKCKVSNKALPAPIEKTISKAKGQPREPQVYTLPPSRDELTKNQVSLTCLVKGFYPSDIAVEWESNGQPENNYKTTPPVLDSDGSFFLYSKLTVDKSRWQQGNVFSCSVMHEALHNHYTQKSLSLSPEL
Method: To investigate which if any of the known coreceptor(s) artemin can utilize to activate RET, its ability to directly bind to soluble Fc-fusion forms of GFRα1, GFRα2, or GFRα3 was assessed. GFRα1-Fc, GFRα2-Fc and GFRα3-Fc fusion proteins were obtained from R&D Systems. Binding assays were performed similarly to assays previously described (Sanicola et al., Proc. Natl. Acad. Sci., USA 94:6238-6243, 1997). Recombinant GDNF, neurturin, artemin, persephin, or purified bovine serum albumin (BSA; Pierce) were coated to Nunc-Immuno MaxiSorp microtiter plates at 325 ng/ml in TBS (10 mM Tris-HCl pH 7.5, 150 mM NaCl) for 1 hour at 25° C. Plates were washed (3× in TBS/0.03% Tween-20), and then blocked (blocking solution: TBS/1% BSA) for 1 hr at 25° C. Receptor bodies diluted in blocking solution were added and incubated for 2 hr at 25° C., washed 5X, then incubated with 1:10,000 dilution of HRP-conjugated anti-human Fc antibodies in blocking solution (Jackson Immunoresearch) for 45 minutes at 25° C. […] The reaction was stopped by adding an equal volume of 0.5M H2SO4, and color was measured in a plate reader at 450 nm. Non-specific binding of receptor bodies to the plates was measured in BSA coated wells, and this binding was subtracted from all other measurements.

[2] = system: dopaminergic neurons from the rat embryonic ventral midbrain; experiment: Survival of TH+ dopaminergic ventral midbrain neurons; type: cell-based; conditions: E14 rat, 50 ng/ml, 3 days in culture, FIG. 7F
Method: Embryonic day 14 ventral mesencephalon cultures were prepared by removing the entire mesencephalon into cold Leibovitz's L15+6 mg/ml glucose and dissecting the tissue while keeping it on ice. Following dissection, the tissue was digested in a mixture of dispase (1 mg/ml, Sigma) and collagenase (1 mg/ml, Worthington Biochemical) for 25 min. Tissue was then washed twice with modified N2 media and triturated 35 times. Cell density and viability was assessed using a hemocytometer to count trypan blue excluding cells. Cells were plated at 20,000 cells/well on 8-well chamber slides (coated with 125 ng/ml poly-D-lysine and 25 ng/ml laminin) in serum-free medium consisting of DME/Hams F12 (1:1), 1 mg/ml BSA, 5 μM insulin, 10 nM progesterone, 100 μM putrescine, 30 nM selenium, 10 ng/ml rat transferrin, 100 U/ml penicillin, 100 U/ml streptomycin. Factors were added within 15 min of plating. After 3 days in culture, the cells were fixed, stained for tyrosine hydroxylase, and the number of tyrosine hydroxylase staining (TH+) neurons were counted. The results from two independent experiments are shown in FIG. 7F as the percentage of surviving TH+ neurons over control.

## artemin: recombinant mature human artemin (FIG. 3A, SEQ ID NO:3) with 8-histidine tag, produced in E. coli; GDNF family neurotrophic factor
[1]; 3 days after 5 days in NGF, anti-NGF antibodies
  survival of SCG neurons: supported the survival of SCG neurons
[1]
  number of SCG neurons supported compared with GDNF or neurturin: fewer neurons were supported by artemin than by GDNF or neurturin
GFRα3-Fc
  direct binding of GFRα3-Fc: able to bind to artemin
[2]
  survival of TH+ dopaminergic midbrain neurons: supported the survival of dopaminergic midbrain neurons
